Key:
human EP2 (PTGER2) = target: T1, human EP2 (PTGER2) (Homo sapiens, UniProt P43116); assay: EP2 antagonist assay (HEK-293 CNG membrane potential cAMP assay / 293T SEAP reporter assay, PGE2-stimulated); assay type: cell-based; conditions: EP2 antagonist activity; concentration for 50% inhibition of signal compared to DMSO
T1 construct: Cayman Chemical (Human EP2 Reporter Assay Kit)
How it was run: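 Two formats. In a CRE-SEAP reporter assay, reverse-transfected 293T cells received compound with PGE2 (13 nM final) for 6-8 h, then luminescence was read. In the ACTOne CNG format, HEK-293 cells were preincubated with compound for 15 min at RT, stimulated with 5 nM PGE2 for 30 min, and read by membrane-potential dye fluorescence. IC50 was taken versus DMSO.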

human EP4 (EP4R) = target: T2, human EP4 (EP4R) (Homo sapiens, UniProt P35408); assay: EP4 antagonist assay (HEK-293 CNG membrane potential cAMP assay / 293T SEAP reporter assay, PGE2-stimulated); assay type: cell-based; conditions: EP4 antagonist activity; concentration for inhibition of signal compared to DMSO
T2 construct: Cayman Chemical (Human EP4 Reporter Assay Kit)
T2 sequence (P35408 whole entry): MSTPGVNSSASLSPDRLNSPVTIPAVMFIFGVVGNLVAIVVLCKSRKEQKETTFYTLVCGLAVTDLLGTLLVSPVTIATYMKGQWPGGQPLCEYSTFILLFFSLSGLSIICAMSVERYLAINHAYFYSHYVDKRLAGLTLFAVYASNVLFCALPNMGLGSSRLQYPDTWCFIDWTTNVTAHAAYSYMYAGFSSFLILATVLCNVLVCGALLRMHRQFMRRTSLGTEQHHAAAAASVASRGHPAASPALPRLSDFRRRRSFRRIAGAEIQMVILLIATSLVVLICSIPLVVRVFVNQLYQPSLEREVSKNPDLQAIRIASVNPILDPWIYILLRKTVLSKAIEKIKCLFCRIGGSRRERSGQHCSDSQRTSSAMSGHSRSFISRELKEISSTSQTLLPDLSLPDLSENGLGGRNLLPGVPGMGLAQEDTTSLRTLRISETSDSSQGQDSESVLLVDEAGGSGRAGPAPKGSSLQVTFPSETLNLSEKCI
Excerpt: 1. The HEK-293 CNG (Cyclic Nucleotide Gated) cell line expressing a modified CNG channel that leads to cell membrane depolarization in response to elevated intracellular cAMP levels, which can be measured using a fluorescent membrane potential dye, was engineered to express human EP2 (PTGER2) or EP4 (EP4R). The resulting cell line ACTOne™ PTGER2 or ACTOne™ EP4R as well as the fluorescent membrane potential dye were purchased from eEnzyme (Gaithersburg, MD, US) and used in this assay. Briefly, cells were plated at 1.2×10^4 cells/well in 20 μL DMEM supplemented with 2% Fetal Bovine Serum (FBS, VWR International), 1x Penicillin/Streptomycin (GenClone), 0.2 μg/mL puromycin (InvivoGen) and 50 μg/mL G418 (InvivoGen) on a 384 well plate (Greiner). The next day, cells were dye-loaded with 20 μL/well of 1x Dye-loading solution (eENZYME) following the manufacturer's instruction. After 2 hours of incubation at room temperature (RT) in the dark, a pre-read was made to obtain the background signals using CLARIOstar plate reader (BMG LABTECH, Germany) with the following filter settings: excitation=530/20 nm, emission=590/20 nm. Next, a serial dilution of compound (plus a DMSO control) were added to the plate (5 μL/well) and the reaction was incubated at RT for 15 min before adding 5 μL of PGE2 to every well for a final concentration of 5 nM. All wells were duplicated. The plate was then further incubated at RT for 30 min prior to a final read with the same machine settings. Background-subtracted signals were used to calculate IC50 values.
2. Human EP2 and EP4 Reporter Assay Kits were purchased from Cayman Chemical (Ann Arbor, MI, USA). The assay was performed following the provided User Manual. Briefly, a reverse transfection was performed by seeding 6.0×10^4 of 293T cells (ATCC) to each well of the provided Strip Plate coated with a proprietary transfection complex containing DNA constructs for expressing human EP2 or EP4 and a cAMP response element regulated secreted alkaline phosphatase (SEAP) reporter, in 200 μL DMEM supplemented with 2% FBS and incubated for 20-24 hours at 37° C. with 5% CO2. After the incubation, the culture medium was carefully removed, and the cells were replenished with 150 μL pre-warmed serum-free medium. PGE2 and test compounds were prepared together at 4x the desired final concentration, and 50 μL was added to each assigned well with the final concentration of 13 nM and 2 nM PGE2 for EP2 and EP4 assay, respectively. After 6-8 hours of incubation, 10 μL media from each well was transferred to corresponding well of a new plate, which was then sealed and incubated at 65° C. for 30 min. The plate was then cooled down to RT and 50 μL SEAP substrate was added to each well. Luminescence signal was measured using a CLARIOstar plate reader.
The IC50 value was determined as the concentration for […] inhibition of signal compared to DMSO (A: IC50≤100 nM; B: IC50 between 100 nM and 1,000 nM; C: IC50≥1,000 nM).

T1 sequence (P43116 whole entry): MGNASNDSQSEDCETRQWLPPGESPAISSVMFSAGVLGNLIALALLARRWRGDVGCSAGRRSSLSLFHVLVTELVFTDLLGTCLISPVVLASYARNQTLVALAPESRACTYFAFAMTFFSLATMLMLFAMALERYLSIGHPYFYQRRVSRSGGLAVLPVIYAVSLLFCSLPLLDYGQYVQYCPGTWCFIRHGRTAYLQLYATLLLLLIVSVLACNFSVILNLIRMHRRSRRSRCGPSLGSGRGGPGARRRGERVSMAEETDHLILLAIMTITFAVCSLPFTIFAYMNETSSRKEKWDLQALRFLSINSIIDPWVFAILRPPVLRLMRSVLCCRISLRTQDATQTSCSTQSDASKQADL

SMILES | IC50 (human EP2 (PTGER2)) [µM] | IC50 (human EP4 (EP4R)) [µM]
C[C@H](NC(=O)c1cc(-c2ccc(F)cc2)cc2cnn(Cc3cccc(C(F)(F)F)c3)c12)c1ccc(C(=O)O)cc1 [Example 134, (S)-4-(1-(5-(4-fluorophenyl)-1-(3-(trifluoromethyl)benzyl)-1H-indazole-7-carboxamido)ethyl)benzoic acid] | < 0.1 | ≤ 0.1
C[C@H](NC(=O)c1cc(-c2ccccc2)cc2cnn(Cc3cccc(C(F)(F)F)c3)c12)c1ccc(C(=O)O)cc1 [Example 135, (S)-4-(1-(5-phenyl-1-(3-(trifluoromethyl)benzyl)-1H-indazole-7-carboxamido)ethyl)benzoic acid] | < 0.1 | ≤ 0.1
C[C@H](NC(=O)c1cc(-c2cc(F)cc(F)c2)cc2cnn(Cc3cccc(C(F)(F)F)c3)c12)c1ccc(C(=O)O)cc1 [Example 136, (S)-4-(1-(5-(3,5-difluorophenyl)-1-(3-(trifluoromethyl)benzyl)-1H-indazole-7-carboxamido)ethyl)benzoic acid] | < 0.1 | ≤ 0.1
O=C(O)c1ccc(CNC(=O)c2cc(-c3ccccc3)cc3ccn(Cc4ccc(-c5ccccc5)cc4)c23)cc1 [Example 147, 4-((1-([1,1′-biphenyl]-4-ylmethyl)-5-phenyl-1H-indole-7-carboxamido)methyl)benzoic acid] | < 0.1 | ≤ 0.1
O=C(O)c1ccc(CNC(=O)c2ccc(Nc3ccccc3)c3ccn(Cc4ccc5ccccc5c4)c23)cc1 [Example 156, 4-((1-(naphthalen-2-ylmethyl)-4-(phenylamino)-1H-indole-7-carboxamido)methyl)benzoic acid] | < 0.1 | ≤ 0.1
O=C(O)c1ccc(CNC(=O)c2cc(-c3ccc(F)cc3)cc3cnn(Cc4ccc5ccccc5c4)c23)cc1 [Example 166, 4-((5-(4-fluorophenyl)-1-(naphthalen-2-ylmethyl)-1H-indazole-7-carboxamido)methyl)benzoic acid] | < 0.1 | ≤ 0.1
O=C(O)c1ccc(CNC(=O)c2cc(-c3ccc(F)cc3)cc3nnn(Cc4ccc(C(F)(F)F)cc4)c23)cc1 [Example 175] | < 0.1 | ≤ 0.1
O=C(O)c1ccc(CNC(=O)c2cc(-c3ccccc3)cc3cnn(Cc4ccc(-c5ccc(F)cc5)cc4)c23)cc1 [Example 184, 4-((1-((4′-fluoro-[1,1′-biphenyl]-4-yl)methyl)-5-phenyl-1H-indazole-7-carboxamido)methyl)benzoic acid] | < 0.1 | ≤ 0.1
C[C@H](NC(=O)c1cc(-c2ccccc2)cc2nnn(Cc3ccc4ccccc4c3)c12)c1ccc(C(=O)O)cc1 [Example 189] | < 0.1 | ≤ 0.1
O=C(O)c1ccc(CNC(=O)c2cc(-c3ccccc3)cc3cnn(Cc4ccc(-c5ccccc5)cc4)c23)cc1 [Example 190, 4-((1-([1,1′-biphenyl]-4-ylmethyl)-5-phenyl-1H-indazole-7-carboxamido)methyl)benzoic acid] | < 0.1 | ≤ 0.1

Continued, values first:

IC50 (human EP2 (PTGER2)) [µM] | IC50 (human EP4 (EP4R)) [µM] | SMILES
< 0.1 | ≤ 0.1 | C[C@H](NC(=O)c1cc(-c2ccccc2)cc2ccn(Cc3cccc(C(F)(F)F)c3)c12)c1ccc(C(=O)O)cc1 [Example 129, (S)-4-(1-(5-phenyl-1-(3-(trifluoromethyl)benzyl)-1H-indole-7-carboxamido)ethyl)benzoic acid]
< 0.1 | ≤ 0.1 | O=C(O)c1ccc(CNC(=O)c2cc(-c3ccccc3)cc3cnn(Cc4cccc(C(F)(F)F)c4)c23)cc1 [Example 137, 4-((5-phenyl-1-(3-(trifluoromethyl)benzyl)-1H-indazole-7-carboxamido)methyl)benzoic acid]
< 0.1 | ≤ 0.1 | O=C(O)c1ccc(CNC(=O)c2cc(-c3ccccc3)cc3ccn(Cc4ccc5ccccc5n4)c23)cc1 [Example 141, 4-((5-phenyl-1-(quinolin-2-ylmethyl)-1H-indole-7-carboxamido)methyl)benzoic acid]
< 0.1 | ≤ 0.1 | O=C(O)c1ccc(CNC(=O)c2cc(-c3cc(F)cc(F)c3)cc3ccn(Cc4ccc(-c5ccccc5)cc4)c23)cc1 [Example 149, 4-((1-([1,1′-biphenyl]-4-ylmethyl)-5-(3,5-difluorophenyl)-1H-indole-7-carboxamido)methyl)benzoic acid]
< 0.1 | ≤ 0.1 | C[C@H](NC(=O)c1cc(-c2ccccc2)cc2ccn(Cc3ccc(-c4ccccc4)cc3)c12)c1ccc(C(=O)O)cc1 [Example 150, (S)-4-(1-(1-([1,1′-biphenyl]-4-ylmethyl)-5-phenyl-1H-indole-7-carboxamido)ethyl)benzoic acid]
< 0.1 | ≤ 0.1 | C[C@H](NC(=O)c1cc(-c2ccc(F)cc2)cc2ccn(Cc3ccc(-c4ccccc4)cc3)c12)c1ccc(C(=O)O)cc1 [Example 151, (S)-4-(1-(1-([1,1′-biphenyl]-4-ylmethyl)-5-(4-fluorophenyl)-1H-indole-7-carboxamido)ethyl)benzoic acid]
< 0.1 | ≤ 0.1 | C[C@H](NC(=O)c1cc(-c2cc(F)cc(F)c2)cc2ccn(Cc3ccc(-c4ccccc4)cc3)c12)c1ccc(C(=O)O)cc1 [Example 152, (S)-4-(1-(1-([1,1′-biphenyl]-4-ylmethyl)-5-(3,5-difluorophenyl)-1H-indole-7-carboxamido)ethyl)benzoic acid]
< 0.1 | ≤ 0.1 | O=C(O)c1ccc(CNC(=O)c2ccc(Nc3ccccc3)c3ccn(Cc4ccc(-c5ccccc5)cc4)c23)cc1 [Example 154, 4-((1-([1,1′-biphenyl]-4-ylmethyl)-4-(phenylamino)-1H-indole-7-carboxamido)methyl) benzoic acid]
< 0.1 | ≤ 0.1 | O=C(O)c1ccc(CNC(=O)c2cc(-c3ccccc3)cc3cnn(Cc4ccc5ccccc5c4)c23)cc1 [Example 165, 4-((1-(naphthalen-2-ylmethyl)-5-phenyl-1H-indazole-7-carboxamido)methyl)benzoic acid]
< 0.1 | ≤ 0.1 | C[C@H](NC(=O)c1cc(-c2ccc(F)cc2)cc2cnn(Cc3ccc4ccccc4c3)c12)c1ccc(C(=O)O)cc1 [Example 168, (S)-4-(1-(5-(4-fluorophenyl)-1-(naphthalen-2-ylmethyl)-1H-indazole-7-carboxamido)ethyl)benzoic acid]
< 0.1 | ≤ 0.1 | C[C@H](NC(=O)c1cc(-c2cc(F)cc(F)c2)cc2cnn(Cc3ccc4ccccc4c3)c12)c1ccc(C(=O)O)cc1 [Example 169, (S)-4-(1-(5-(3,5-difluorophenyl)-1-(naphthalen-2-ylmethyl)-1H-indazole-7-carboxamido)ethyl)benzoic acid]
< 0.1 | ≤ 0.1 | O=C(O)c1ccc(CNC(=O)c2cc(-c3cc(F)cc(F)c3)cc3nnn(Cc4ccc(C(F)(F)F)cc4)c23)cc1 [Example 176, ((5-(3,5-difluorophenyl)-1-(4-(trifluoromethyl)benzyl)-1H-benzo[d][1,2,3]triazole-7-carboxamido)methyl)benzoic acid]
< 0.1 | ≤ 0.1 | C[C@H](NC(=O)c1cc(-c2ccc(F)cc2)cc2nnn(Cc3ccc(C(F)(F)F)cc3)c12)c1ccc(C(=O)O)cc1 [Example 180, (S)-4-(1-(5-(4-fluorophenyl)-1-(4-(trifluoromethyl)benzyl)-1H-benzo[d][1,2,3]triazole-7-carboxamido)ethyl)benzoic acid]
< 0.1 | ≤ 0.1 | O=C(O)c1ccc(CNC(=O)c2cc(-c3ccc(F)c(F)c3)cc3ccn(Cc4ccc(-c5ccccc5)cc4)c23)cc1 [Example 188, 4-((1-([1,1′-biphenyl]-4-ylmethyl)-5-(3,4-difluorophenyl)-1H-indole-7-carboxamido)methyl)benzoic acid]

Source: patent US20250179017A1 (GUANGDONG NEWOPP BIOPHARMACEUTICALS CO., LTD., priority 2022, published 2025)
